# Experimental data published in US9447449B2, “Recombinant mycobacteriophages for delivery of nucleic acids of interest into mycobacteria” (Albert Einstein College of Medicine of Yeshiva University, priority 2011, dated 2016).
# Tested on: M. tuberculosis mc^26230
# Assay type: cell-based
Compound,MFI relative to untreated control,average fluorescence decreased by [%],effect of 18 hr pre-treatment prior to phage addition on DST signal,six hour pre-incubation to determine drug sensitivity,fluorescence of the M. tuberculosis cells diminished by
NNC(=O)c1ccncc1 [isoniazid],lower than the untreated control,64,increased the difference between treated and non-treated samples,not sufficient,
NC[C@H]1O[C@H](O[C@H]2[C@H](O)[C@@H](O[C@H]3O[C@H](CO)[C@@H](O)[C@H](N)[C@H]3O)[C@H](N)C[C@@H]2N)[C@H](O)[C@@H](O)[C@@H]1O [kanamycin],,,,,approximately 85%
CO[C@H]1/C=C/O[C@@]2(C)Oc3c(C)c(O)c4c(O)c(c(/C=N/N5CCN(C)CC5)c(O)c4c3C2=O)NC(=O)/C(C)=C\C=C\[C@H](C)[C@H](O)[C@@H](C)[C@@H](O)[C@@H](C)[C@H](OC(C)=O)[C@@H]1C [rifampicin],,,,,approximately 85%
